Reference: patent US12369577B2, “Monoterpenoid/phenylpropanoid-containing compounds and methods of their making and use as baits” (KITTRICH CORPORATION, priority 2016, dated 2025)
“Also recorded” adds a separate entry of the source.

Experiments:
[1] = tested on: house flies (Musca domestica); test: House fly feeding assay, solid food, choice assay; assay type: in vivo; details: 15% w/w food; treated and untreated food; 5-days post exposure (FIG. 6)
Description: The choice assay included one untreated food source of 1:1 evaporated milk powder and sucrose and one treated food source (with toxic biorational compounds) comprised of the same materials. Moreover, toxic insecticidal bait compounds were incorporated into the food mixture at a concentration of 15% w/w food. This increased concentration of toxic insecticidal bait was chosen to account for the concomitant lower percentage mortality expected due to the presence of both a treated and untreated food source. Mortality was recorded at 5-days post exposure.
Data is presented as average percentage mortality with the standard error of the mean (SEM). This number was compared to the total number of flies introduced to each aquaria for each replicate, and a percentage mortality was calculated. A minimum of three replicates were performed for each compound.

[2] = tested on: house flies (Musca domestica); details: in vivo
Protocol: House flies (Musca domestica) were obtained from an established colony maintained by the Pesticide Toxicology Laboratory, Department of Entomology at iowa State University, Ames IA Flies were maintained according to standard laboratory protocols. House flies were supplied with water via cotton wick and solid support of sugar and dry milk (mixed 1:1), ad libitum. Prior to testing, house flies were maintained at a temperature of 24±2° C., were held at 30%±10% relative humidity, and a 12:12 hr light:dark photoperiod. Flies were randomly chosen from one of three separate Bioquip BugDorm® cages on different days to prevent a potential bias in health.

[3] = tested on: house flies (Musca domestica); test: House fly feeding assay, solid food, non-choice; assay type: in vivo; details: 5% weight/weight food compound plus 0.5% Z-9-tricosene (Muscalure) (FIG. 5)
Description: Approximately 20-30 adult house flies (Musca domestica) were introduced into aquaria (2.5 gallon) with a French square filled with de-ionized water. Cotton dental wicks were used to draw water up and present it to flies at the top of the French square. Different concentrations of compounds were introduced into 1:1 mixtures of evaporated milk powder and sucrose. 2 grams of food was provided to flies with compound incorporated at various weights by weight food. If the material was solid, a mortar and pestle was used to homogenize the crushed evaporated milk powder, sucrose, and compound. If the material was a liquid, it was dissolved in acetone and aliquotted into the food slowly until the desired concentration of compound by weight food was achieved. If acetone was used as the carrier throughout the experiment, the food was carefully stirred repeatedly to ensure evaporation so that no more acetone was present in the food. The concentration used to assess mortality was 5% weight compound by weight food. Total mortality was assessed at 5 days after introducing house flies into individual mason jars with food treated with different compounds. […]
Data is presented as average percentage mortality with the standard error of the mean (SEM). This number was compared to the total number of flies introduced to each aquaria for each replicate, and a percentage mortality was calculated. […]

[4] = tested on: German cockroaches (Blattella germanica); test: German cockroach feeding assay (compound in crushed Cheerios); assay type: in vivo; details: for percentage mortality compared to the control at two weeks / percentage mortality compared to the control: 3.75% weight compound/weight food; for percentage mortality compared to the control at two weeks: α=0.05 (FIG. 2); for percentage mortality compared to the control: 1, 2, and 3 weeks (FIG. 1); for mortality at two weeks: 15% w/w food, two weeks (FIG. 3)
Protocol: Insects were kept in a constant 12:12-hour light: dark cycle and fed a diet of dry cat food (Purina® Cat Chow Complete®, rolled oats (HyVEE® Old Fashioned Oats), and Fluker's® Cricket Quencher.
Five adult German cockroaches (Blattella germanica) were introduced to mason jars with steel mesh at the top to prevent escape. 266.6 mg of crushed Cheerios™ (approximately two cheerios) was mixed with compound at varying concentrations by weight food. If the material was solid, a mortar and pestle was used to homogenize the crushed Cheerios and compound. If the material was a liquid, it was dissolved in acetone and aliquoted into the food slowly until the desired concentration of compound by weight food was achieved. If acetone was used as the carrier throughout the experiment, the food was carefully stirred repeatedly to ensure evaporation so that no more acetone was present in the food. This was done to prevent mortality due to the presence of solvent in the treated food. Controls consisted of food that was treated with approximately 1 mL of just acetone. […] Concentrations used to assess mortality were 3.75% and 15% weight compound by weight food. Total mortality was assessed at 2 weeks after introducing cockroaches into individual mason jars with food treated with different compounds.
Data is presented as average percentage mortality with the standard error of the mean (SEM). A minimum of three replicates were performed for each compound and a ANOVA with a post-hoc Student Newman-Kuels test was performed to compare individual treatments to the control (α=0.05).

[5] = tested on: Northern house mosquitoes (Culex pipiens); details: 0.1%

## CC(C)=CCCC(C)CCOC(=O)COc1cc(C)ccc1C(C)C (centres unmarked)
[1]
  toxicity and palatability in choice assay: significant levels of toxicity

## CCCCCOC(=O)COc1cc(C)ccc1C(C)C [amyl ester of thymyloxyacetic acid, amyl thymyloxyacetate]
[1]
  toxicity and palatability in choice assay: significant levels of toxicity

## OB(O)O [boric acid, reference compound]
[2]
  percentage mortality at 120 hours: 100%

## O=C(CCCCC(=O)OC/C=C/c1ccccc1)OC/C=C/c1ccccc1 [dicinnamyl adipate]
[3]
  percentage mortality with added Z-9-tricosene: higher percentage mortality; also recorded: increased toxicity

## CC(C)=CCCC(C)CC(=O)OCC(O)COC(=O)CC(C)CCC=C(C)C (centres unmarked) [dicitronelloyl glycerol, dicitronelloylglycerol]
[4]
  percentage mortality compared to the control at two weeks: statistically significant percentage mortality compared to the control

## CC(C)=CCCC(C)CC(=O)OCCOC(=O)CC(C)CCC=C(C)C (centres unmarked) [ethylene dicitronellate]
[4]
  percentage mortality compared to the control: considerably higher percentage mortality at all time points compared to the control group
  percentage mortality compared to the control at two weeks: statistically significant percentage mortality compared to the control
  mortality at two weeks: 100%
[4]; listed as Ethylene dicitronellate
  percentage mortality compared to the control: considerably higher percentage mortality compared to the control

## CC(C)=CCC/C(C)=C/COC(=O)COc1cc(C)ccc1C(C)C [geranyl thymyloxyacetate]
[1]
  toxicity and palatability in choice assay: significant levels of toxicity

## CC(C)=CCCC(C)CC(=O)OC1C(OC(=O)CC(C)CCC=C(C)C)C(OC(=O)CC(C)CCC=C(C)C)C(OC(=O)CC(C)CCC=C(C)C)C(OC(=O)CC(C)CCC=C(C)C)C1OC(=O)CC(C)CCC=C(C)C (centres unmarked) [hexacitronellyl inositol, hexacitronelloylinositol]
[4]
  mortality at two weeks: 100%

## Cc1ccc(C(C)C)c(OCC(=O)OC(C)C)c1 [isopropyl ester of thymyloxyacetic acid]
[1]
  toxicity and palatability in choice assay: significant levels of toxicity

## Cc1ccc(C(C)C)c(O)c1 [thymol, reference compound]
[2]
  percentage mortality at 120 hours: 25±10.7%

## Cc1ccc(C(C)C)c(OCC(=O)O)c1 [thymyloxyacetic acid]
[2]
  mortality compared with boric acid: performed similarly
  percentage mortality at 48 hours: 26.7%
  percentage mortality at 72 hours: 80%
  percentage mortality at 96 hours: 93.3%
  percentage mortality at 120 hours: 100%
[5]; 96, 120, and 144 hours
  percentage mortality compared to boric acid (FIG. 8 legend): higher numerical percentage mortality than boric acid
[5]; 96, 120, and 144 hours (FIG. 8)
  percentage mortality compared to the sucrose-only control: statistically significant percentage mortality compared to the sucrose-only control
[5]; 120 and 144 hours
  percentage mortality compared to boric acid: much higher numerical percentage mortality compared to boric acid
[5]; 144 hours after introduction
  maximum percentage mortality: 95±3.53%
[5]; all time points, lack of statistical significance
  performance compared with boric acid: performed as well as boric acid
